Measurements as given in patent USRE30511E, “Imidazo[1,5-d]-as-triazine-4(3H)-ones and thiones” (American Cyanamid Company, priority 1979, dated 1981).

Legend:
[1] = test system: Mouse Skin Phosphodiesterase; assay: Mouse skin phosphodiesterase (PDE) inhibition test; format: biochemical, Hairless mice; parameters: key: Active: A compound is considered active if it inhibits more than theophylline, that is, to 50% of control at 1 mM concentration of compound, or to 80% of control of 0.05 mM concentration of compound; conditions: 10 ug./ml. final concentration; 30° C. for 15 minutes
[2] = test system: Monkey Lung Cyclic AMP Phosphodiesterase; assay: Monkey lung phosphodiesterase inhibition test; format: biochemical, African green monkeys; conditions: usually 1 mM or 0.1 mM; pH 7.4, 25° C. for 20 minutes
Procedure: Lung parenchyma of African green monkeys is homogenized in a Waring blender and centrifuged at 40,000×gravity for 20 minutes. The supernatant is brought to 70% saturation of ammonium sulfate, centrifuged and the pellet redissolved and dialysed, before aliquoting and storage at --20° C.
Phosphodiesterase is assayed by the method of Thompson and Appleman, ibid. An assay tube contains a 0.4 ml. solution of the following: 45 mM tris-HCl buffer, pH 7.4, […], 0.1 mM dithioerythritol, 10^-6 M cyclic AMP, 0.1 uCi [^3 H]-cyclic AMP, and test compound at the desired concentration (usually 1 mM or 0.1 mM). Compounds not readily soluble in water are dissolved at 40 times the desired concentration in methanol, and diluted 20 times with water. If the compound is not dissolved at this time, it is suspended by sonication before being diluted 1:2 into the assay tube. In this case the activity of the enzyme in the presence of the compound is compared to a solvent control (2.5% methanol), although the solvent alone has negligible effect. The reaction is initiated by addition of enzyme and proceeds at 25° C. for 20 minutes. It is terminated by incubation at 100° C. for 2 minutes. The tubes are cooled to 25° C., 0.8 ug of 5'-nucleotidase (Crotolu adamantus toxin) is added to each and the tubes incubated at 25° C. for 30 minutes. A 1 milliliter suspension of Bio-Rad Labs. AGIX8 (about 0.5 ml. of settled resin) is added, the tubes centrifuged at 900×gravity for 10 minutes and an aliquot of supernatant removed for scintillation counting. The inhibition by the test compound is calculated as: [formula] where `compound` is the cpm in the presence of compound, `control` is the cpm in the absence of compound, and `blank` is the cpm in the absence of enzyme. […] For this reason, control tubes which contained [^3 H]-AMP instead of [^3 H]-cyclic AMP are run in parallel. A correction of the apparent phosphodiesterase activity is made for the rare compound which inhibited the hydrolysis of AMP.

[3] = Dispersion of aerosol suspension on warming after storage; format: physicochemical; conditions: aerosol suspension in dichlorodifluoromethane with sorbitan trioleate, sonified
Procedure: The active ingredient and sorbitan trioleate are placed in a beaker and the dichlorodifluoromethane is added at -40° C. whereupon a suspension is formed. The mixture is sonified, that is, treated with a Sonifier, manufactured by the Branson Sonic Power Co. of Danbury, Conn., as model LS-75 at a current input of 9 amperes for 2 minutes. Additional cold dichlorodifluoromethane is added as necessary to keep the volume at 100 ml. The mixture is uniformly dispersed, and has increased stability resulting from the sonification. Each of six 19 ml. stainless steel containers are filled with 15 ml. of the cold mixture, then valves are inserted and sealed in place.

SMILES | Mouse Skin Phosphodiesterase (A) [1] | Monkey lung phosphodiesterase inhibition (B) [2] | dispersion of the aerosol suspension [3]
Cc1nc(C)n2c(=O)[nH]ncc12 [6,8-Dimethyl-imidazo[1,5-d]-as-triazin-4(3H)-one] | Active | Active | 
Cc1nc(C)n2c(=S)[nH]ncc12 [6,8-Dimethyl-imidazo[1,5-d]-as-triazine-4-(3H)-thione] | Active |  | 
Cc1nc(Cc2ccccc2)n2c(=O)[nH]ncc12 [6-Benzyl-8-methyl-imidazo[1,5-d]-as-triazin-4(3H)-one] | Active |  | 
Cc1nc(Cc2ccccc2)n2c(=S)[nH]ncc12 [6-Benzyl-8-methyl-imidazo[1,5-d]-as-triazine-4(3H)-thione] | Active | Active | 
O=c1[nH]ncc2cnc(Cc3ccccc3)n12 [6-Benzyl-imidazo[1,5-d]-as-triazin-4(3H)-one] | Active |  | 
O=c1[nH]ncc2cnc(-c3ccccc3)n12 [6-Phenyl-imidazo[1,5-d]-as-triazin-4(3H)-one] | Active |  | 
CCCc1ncc2cn[nH]c(=O)n12 [6-n-Propyl-imidazo[1,5-d]-as-triazin-4(3H)-one] | Active |  | 
CCCc1ncc2cn[nH]c(=S)n12 [6-n-Propyl-imidazol[1,5-d]-as-triazine-4(3H)-thione] | Active | Active | 
CCCOc1ccccc1-c1ncc2cn[nH]c(=O)n12 [6-o-Propoxyphenyl-imidazo[1,5-d]-as-triazine-4(3H)-one] | Active |  | 
Cc1nc(C(C)(C)C)n2c(=O)[nH]ncc12 [6-tert-Butyl-8-methyl-imidazo[1,5-d]-as-triazin-4(3H)-one] | Active | Active | 
CC(C)(C)c1ncc2cn[nH]c(=O)n12 [6-tert-Butyl-imidazo[1,5-d]-as-triazin-4(3H)-one] | Active |  | 
O=c1[nH]ncc2c(Br)nc(-c3ccccc3)n12 [8-Bromo-6-phenyl-imidazo[1,5-d]-as-triazin-4(3H)-one] | Active | Active | 

More lines, now with the values ahead:

Mouse Skin Phosphodiesterase (A) [1] | Monkey lung phosphodiesterase inhibition (B) [2] | dispersion of the aerosol suspension [3] | SMILES
Active | Active |  | O=c1[nH]ncc2c(Cl)nc(-c3ccccc3)n12 [8-Chloro-6-phenyl-imidazo[1,5-d]-as-triazin-4(3H)-one]
Active | Active |  | CCCc1nc(C)c2cn[nH]c(=S)n12 [8-Methyl-6-n-propyl-imidazolo[1,5-d]-as-triazine-4(3H)-thione]
Active | Active |  | Cc1nc(-c2ccccc2)n2c(=O)[nH]ncc12 [8-Methyl-6-phenyl-imidazo[1,5-d]-as-triazin-4(3H)-one]
Active |  |  | Cc1nc(-c2ccccc2)n2c(=S)[nH]ncc12 [8-Methyl-6-phenyl-imidazo[1,5-d]-as-triazine-4-(3H)-thione]
Active |  |  | Cc1ncn2c(=O)[nH]ncc12 [8-Methyl-imidazo[1,5-d]-as-triazin-4(3H)-one]
Active |  |  | Cc1ncn2c(=S)[nH]ncc12 [8-Methyl-imidazo[1,5-d]-as-triazine-4-(3H)-thione]
 |  | remains dispersed | CC(C)c1nc(Cl)c2cn[nH]c(=S)n12 [8-chloro-6-isopropyl-imidazo[1,5-d]-as-triazine-4(3H)-thione]
